Reference: the NIST ThermoML archive (doi:10.1021/je800468h)
Values joined by “and” are separate entries in the source; they are usually repeats but may differ in a detail not shown here. Identical values can stand only once.

Assays:
[1] = 298.15 K, 101 kPa, Liquid; for electrical conductivity: Alternating current cell with electrodes; for mass density: Vibrating tube method
[2] = xn = mol fraction of the nth substance listed; conditions: 298.15 K, 101 kPa, Liquid; for electrical conductivity: Alternating current cell with electrodes; for mass density: Vibrating tube method

CCCCn1cc[n+](C)c1.N#CN=C=[N-] [1-butyl-3-methylimidazolium dicyanamide]
[1]
Conditions | electrical conductivity [S/m] | mass density [kg/m3]
– | 1.139 | 1059.12

CCCCn1cc[n+](C)c1.N#CN=C=[N-] [1-butyl-3-methylimidazolium dicyanamide] + O
[2]
Conditions | electrical conductivity [S/m] | mass density [kg/m3]
x1 = 0.009639 | 2.02 | 1003.22
x1 = 0.02791 | 3.49 | 1011.25
x1 = 0.05432 | 4.43 | 1019.63
x1 = 0.07995 | 4.8 | 1025.43
x1 = 0.1112 | 4.9 | 1031.05
x1 = 0.1933 | 4.47 | 1040.01
x1 = 0.3214 | 3.55 | 1047.31
x1 = 0.4686 | 2.71 | 1051.86
x1 = 0.6386 | 2 | 1055.38
x1 = 0.8742 | 1.37 | 1058.33
x1 = 1 | 1.139 | 1059.12

CCCCn1cc[n+](C)c1.F[P-](F)(F)(F)(F)F [1-butyl-3-methylimidazolium hexafluorophosphate]
[1]
Conditions | electrical conductivity [S/m] | mass density [kg/m3]
– | 0.147 | 1368.32

CCCCn1cc[n+](C)c1.F[P-](F)(F)(F)(F)F [1-butyl-3-methylimidazolium hexafluorophosphate] + CC#N
[2]
Conditions | electrical conductivity [S/m] | mass density [kg/m3]
x1 = 0.007571 | 1.49 | 795.63
x1 = 0.01576 | 2.54 | 815.17
x1 = 0.02489 | 3.39 | 835.56
x1 = 0.03448 | 4.05 | 855.89
x1 = 0.05838 | 5 | 901.77
x1 = 0.08779 | 5.39 | 950.71
x1 = 0.1261 | 5.27 | 1004.47
x1 = 0.1772 | 4.68 | 1062.7
x1 = 0.2521 | 3.63 | 1128.61
x1 = 0.3649 | 2.3 | 1199.71
x1 = 0.5591 | 0.995 | 1278.14
x1 = 0.7291 | 0.469 | 1321.97
x1 = 0.8729 | 0.253 | 1349.76
x1 = 1 | 0.147 | 1368.32

CCCCn1cc[n+](C)c1.F[B-](F)(F)F [1-butyl-3-methylimidazolium tetrafluoroborate]
[1]
Conditions | electrical conductivity [S/m] | mass density [kg/m3]
– | 0.353 | 1202.19

CCCCn1cc[n+](C)c1.F[B-](F)(F)F [1-butyl-3-methylimidazolium tetrafluoroborate] + CO
[2]
Conditions | electrical conductivity [S/m] | mass density [kg/m3]
x1 = 0.007409 | 0.867 | 802.48
x1 = 0.01543 | 1.45 | 818.28
x1 = 0.02435 | 1.97 | 834.29
x1 = 0.03355 | 2.4 | 849.76
x1 = 0.05717 | 3.3 | 885.02
x1 = 0.08589 | 3.81 | 921.13
x1 = 0.1242 | 4.18 | 961.01
x1 = 0.1755 | 4.26 | 1002.48
x1 = 0.248 | 3.92 | 1046.31
x1 = 0.3624 | 3.09 | 1094.85
x1 = 0.5583 | 1.76 | 1145.28

CCCCn1cc[n+](C)c1.F[B-](F)(F)F [1-butyl-3-methylimidazolium tetrafluoroborate] + C[S+](C)[O-]
[2]
Conditions | electrical conductivity [S/m] | mass density [kg/m3]
x1 = 0.01925 | 0.687 | 1101.56
x1 = 0.03427 | 1.029 | 1106.21
x1 = 0.07837 | 1.56 | 1117.8
x1 = 0.1247 | 1.715 | 1128.31
x1 = 0.1866 | 1.67 | 1139.5
x1 = 0.2554 | 1.502 | 1150.71
x1 = 0.3251 | 1.31 | 1159.4
x1 = 0.4423 | 1.015 | 1171.71
x1 = 0.5246 | 0.854 | 1178.2
x1 = 0.6132 | 0.711 | 1184.27
x1 = 0.7494 | 0.543 | 1192.13

CCCCn1cc[n+](C)c1.F[B-](F)(F)F [1-butyl-3-methylimidazolium tetrafluoroborate] + ClCCl
[2], x1 = 1
Conditions | electrical conductivity [S/m] | mass density [kg/m3]
– | 0.353 | 1202.19

CCCCn1cc[n+](C)c1.F[B-](F)(F)F [1-butyl-3-methylimidazolium tetrafluoroborate] + O
[2]
Conditions | electrical conductivity [S/m] | mass density [kg/m3]
x1 = 0.005053 | 1.72 | 1007
x1 = 0.008751 | 2.47 | 1013.47
x1 = 0.01927 | 3.59 | 1030.78
x1 = 0.03304 | 4.46 | 1047.81
x1 = 0.04969 | 4.9 | 1065.19
x1 = 0.07385 | 5.17 | 1084.47
x1 = 0.1053 | 5.21 | 1103.47
x1 = 0.1566 | 4.93 | 1124.77
x1 = 0.1991 | 4.55 | 1137.3
x1 = 0.2824 | 3.71 | 1154.46
x1 = 0.414 | 2.57 | 1171.08
x1 = 0.4919 | 2.04 | 1177.86
x1 = 0.5749 | 1.57 | 1183.94
x1 = 0.6838 | 1.1 | 1190.14
x1 = 0.7594 | 0.846 | 1193.53
x1 = 0.8931 | 0.527 | 1198.74
x1 = 1 | 0.353 | 1202.19

CCn1cc[n+](C)c1.F[B-](F)(F)F [1-ethyl-3-methylimidazolium tetrafluoroborate]
[1]
Conditions | electrical conductivity [S/m] | mass density
– | 1.55 | 1283.7 kg/m3 and 1283.7 kg/m3 and 1280.38 kg/m3

CCn1cc[n+](C)c1.F[B-](F)(F)F [1-ethyl-3-methylimidazolium tetrafluoroborate] + CC#N
[2]
Conditions | electrical conductivity [S/m] | mass density
x1 = 0.008411 | 1.58 | 791.26 kg/m3
x1 = 0.01082 | 1.9 | 795.48 kg/m3
x1 = 0.01528 | 2.46 | 802.59 kg/m3
x1 = 0.01646 | 2.55 | 804.68 kg/m3
x1 = 0.02252 | 3.13 | 814.3 kg/m3
x1 = 0.02253 | 3.14 | 813.87 kg/m3
x1 = 0.04929 | 4.89 | 853.38 kg/m3
x1 = 0.04942 | 4.94 | 854.17 kg/m3
x1 = 0.08059 | 6.03 | 893.87 kg/m3
x1 = 0.1007 | 6.5 | 916.26 kg/m3
x1 = 0.1218 | 6.72 | 939.88 kg/m3
x1 = 0.1433 | 6.94 | 960.07 kg/m3
x1 = 0.1736 | 6.92 | 988.57 kg/m3
x1 = 0.2043 | 6.91 | 1012.5 kg/m3
x1 = 0.2371 | 6.65 | 1038.16 kg/m3
x1 = 0.2778 | 6.41 | 1063.36 kg/m3
x1 = 0.3264 | 5.9 | 1093.25 kg/m3
x1 = 0.384 | 5.41 | 1120.11 kg/m3
x1 = 0.4565 | 4.64 | 1153.25 kg/m3
x1 = 0.4888 | 4.44 | 1163.04 kg/m3
x1 = 0.6478 | 3.2 | 1211.72 kg/m3
x1 = 0.652 | 3.1 | 1215.55 kg/m3
x1 = 0.759 | 2.54 | 1237.95 kg/m3
x1 = 0.8336 | 2.11 | 1255.87 kg/m3
x1 = 0.8902 | 1.95 | 1263.01 kg/m3
x1 = 1 | 1.55 | 1283.7 kg/m3 and 1280.38 kg/m3

CCn1cc[n+](C)c1.F[B-](F)(F)F [1-ethyl-3-methylimidazolium tetrafluoroborate] + O
[2]
Conditions | electrical conductivity [S/m] | mass density [kg/m3]
x1 = 0.004746 | 1.87 | 1007.69
x1 = 0.01001 | 3.26 | 1018.31
x1 = 0.02226 | 5.35 | 1040.22
x1 = 0.03637 | 6.81 | 1061.36
x1 = 0.05733 | 8.08 | 1087.31
x1 = 0.08102 | 8.84 | 1110.93
x1 = 0.115 | 9.24 | 1136.45
x1 = 0.174 | 9.08 | 1168.6
x1 = 0.2564 | 8.13 | 1198.61
x1 = 0.419 | 5.99 | 1233.28
x1 = 1 | 1.55 | 1283.7

CCCCCCn1cc[n+](C)c1.F[B-](F)(F)F [1-hexyl-3-methylimidazolium tetrafluoroborate] + CC#N
[2]
Conditions | electrical conductivity [S/m] | mass density [kg/m3]
x1 = 0.004117 | 0.838 | 784.24
x1 = 0.008445 | 1.442 | 791.63
x1 = 0.01744 | 2.35 | 806.26
x1 = 0.03816 | 3.51 | 836.42
x1 = 0.06486 | 4.13 | 869.76
x1 = 0.09763 | 4.25 | 903.86
x1 = 0.1399 | 3.96 | 939.67
x1 = 0.1943 | 3.37 | 975.94
x1 = 0.2712 | 2.53 | 1014.86
x1 = 0.3907 | 1.543 | 1056.74
x1 = 0.5902 | 0.656 | 1100.45
x1 = 0.7435 | 0.344 | 1122.12
x1 = 0.8889 | 0.192 | 1137.2
x1 = 1 | 0.1228 | 1146.34

CCCCCCn1cc[n+](C)c1.F[B-](F)(F)F [1-hexyl-3-methylimidazolium tetrafluoroborate] + O
[2]
Conditions | electrical conductivity | mass density
x1 = 0.0007116 | 0.327 S/m | 998.06 kg/m3
x1 = 0.001428 | 0.567 S/m | 999.52 kg/m3
x1 = 0.001482 | 0.608 S/m | 999.64 kg/m3
x1 = 0.002238 | 0.854 S/m | 1001.24 kg/m3
x1 = 0.00296 | 1.05 S/m and 1.06 S/m | 1002.63 kg/m3 and 1002.7 kg/m3
x1 = 0.003642 | 1.225 S/m | 1003.94 kg/m3
x1 = 0.00447 | 1.411 S/m | 1005.24 kg/m3
x1 = 0.004747 | 1.47 S/m | 1005.61 kg/m3
x1 = 0.2816 | 2.03 S/m | 1113.63 kg/m3
x1 = 0.314 | 1.829 S/m | 1116.76 kg/m3
x1 = 0.3441 | 1.66 S/m | 1119.43 kg/m3
x1 = 0.3813 | 1.46 S/m | 1122.43 kg/m3
x1 = 0.4148 | 1.29 S/m | 1124.75 kg/m3
x1 = 0.5139 | 0.898 S/m | 1130.58 kg/m3
x1 = 0.5161 | 0.885 S/m | 1130.73 kg/m3
x1 = 0.7069 | 0.417 S/m | 1138.7 kg/m3
x1 = 1 | 0.1228 S/m | 1146.34 kg/m3

CC1COC(=O)O1 (centres undefined) [4-methyl-1,3-dioxolan-2-one] + CCCCn1cc[n+](C)c1.F[B-](F)(F)F
[2]
Conditions | electrical conductivity [S/m] | mass density [kg/m3]
x2 = 0.02318 | 0.537 | 1201.32
x2 = 0.04836 | 0.873 | 1202.51
x2 = 0.1028 | 1.23 | 1204.3
x2 = 0.1601 | 1.346 | 1205.43
x2 = 0.2277 | 1.332 | 1206.17
x2 = 0.3056 | 1.229 | 1206.51
x2 = 0.407 | 1.05 | 1206.44
x2 = 0.5126 | 0.875 | 1206.03
x2 = 0.6192 | 0.715 | 1205.48
x2 = 0.7173 | 0.593 | 1204.39
x2 = 0.8497 | 0.463 | 1203.39

ClCCl [dichloromethane] + CCCCn1cc[n+](C)c1.F[B-](F)(F)F
[2]
Conditions | electrical conductivity [S/m] | mass density [kg/m3]
x2 = 0.00755 | 0.0602 | 1316.6
x2 = 0.01921 | 0.2 | 1314.92
x2 = 0.02714 | 0.31 | 1313.4
x2 = 0.03878 | 0.436 | 1311.8
x2 = 0.07987 | 0.98 | 1304.97
x2 = 0.1395 | 1.427 | 1294.06
x2 = 0.194 | 1.55 | 1284.29
x2 = 0.2674 | 1.607 | 1271.96
x2 = 0.3355 | 1.53 | 1261.43
x2 = 0.4787 | 1.209 | 1242.95
x2 = 0.6019 | 0.93 | 1230.33
x2 = 0.773 | 0.62 | 1216.18
x2 = 0.8496 | 0.511 | 1211.19
x2 = 0.9107 | 0.441 | 1207.46
